Data set [1] concerns the target T1, DOT1L (Homo sapiens, UniProt Q8TEK3).
T1 construct: 1-416; BRIC
Description: Histone methyltransferase enzymatic assay, DOT1L. Format: biochemical. The following applies: enzyme conc. 2 nM. The procedure:
(§1) Histone methyltransferase assays were performed in 96-well half-area optiplates (PerkinElmer) at room temperature. All concentrations are final unless noted otherwise. Compounds were serially diluted in DMSO and the final DMSO concentration was 1%. A 24 μL reaction mixture contained compound, enzyme, 200 nM of nucleosome or histone substrate, 400 nM ^3H-SAM (83.1 Ci/mmol), 50 mM Tris-HCl (pH 8.0), 50 mM NaCl, 5 mM MgCl2, 1 mM DTT, and 0.01% Tween-20. The plate was sealed, mixed on a Titramax plate shaker at 1200 rpm for 30 sec, and incubated at room temperature for 60 min. The reaction was quenched by addition of 24 μL mixture containing 5 mg/mL PVT-PEI beads and 300 μM unlabeled SAM in water. The plate was sealed, mixed as previously noted, incubated overnight, and read on a TopCount plate reader (PerkinElmer).
(§2) Data was analyzed using GraphPad Prism 6.0 (La Jolla, CA). […] IC50 values were calculated as an average of at least two independent experiments.

In data set [2] the target is T2, PRMT4 (Homo sapiens, UniProt Q86X55).
T2 construct: 2-608
The data set is described as follows: Histone methyltransferase enzymatic assay, PRMT4. Format: biochemical. The conditions noted are these: enzyme conc. 100 nM. The procedure:
as §1, §2

Data set [3] concerns the target T3, HDAC-1 (Homo sapiens, UniProt Q13547).
T3 construct: Full length; purchased BPS
Description: HDAC-1 histone deacetylase assay (FLUOR DE LYS). Format: biochemical. The following applies: enzyme conc. 5 nM.

The nature of data set [4]: Cytotoxicity CC50, MT-4. It is filed as cell-based. The following applies: human, MT-4 cells (T-lymphoblastoid cell line). The source says: (§3) a Values represent the geometric mean and multiplicative standard deviation of 3 – 5 primary human hepatocyte (PHH) donors or 5 – 10 independent experiments.
(§4) b MT-4: human T-lymphoblastoid cell line; PBMC: peripheral blood mononuclear cell; Gal-HepG2: galactose adapted human hepatoblastoma cell line; Huh-7: human hepatoma cell line; Gal-PC3: galactose adapted human prostate carcinoma cell line; MRC-5: Medical Research Council 5 embryonal lung fibroblast; NRVM: neonatal rat ventricular cardiomyocytes

Data set [5] in a line: Cytotoxicity CC50, PBMC. It is filed as cell-based. The conditions noted are these: human, PBMC (peripheral blood mononuclear cells).
Description: as §3, §4

Data set [6] in a line: Cytotoxicity CC50, Gal-HepG2. Format: cell-based. The conditions noted are these: human, Gal-HepG2 cells (galactose adapted hepatoblastoma cell line).
Description: as §3, §4

Data set [7] in a line: Cytotoxicity CC50, PHH. Format: cell-based. The following applies: human, primary human hepatocytes (PHH).
Description: as §3, §4

A short description of data set [8]: Cytotoxicity CC50, Gal-PC3. It is filed as cell-based. The following applies: human.
Description: as §3, §4

For data set [9], the system named is PHH or a panel of human cells. Description: Cytotoxicity in PHH or in a panel of human cells (summary). The following applies: concentrations up to 57 μM. It is filed as cell-based.
Data set [10] concerns HBV. The data set is described as follows: Extracellular HBV DNA (vDNA) by qPCR in HBV-infected PHH. It is filed as cell-based. The following applies: Hepatitis B virus. The procedure:
Approximately 24 hours after plating, PHH were infected with HepAD38-derived GTD virus at 500 viral genome equivalents per cell in maintenance medium supplemented with 4% PEG 8000 (Promega, Madison, WI; V3011). For patient sera infections, PHH were infected with 6 μl of patient sera in maintenance medium supplemented with 4% PEG 8000. Infections were allowed to proceed for 20–24 hours before removing remaining extracellular virions by washing with maintenance medium three times. […]
Viral DNA from PHH supernatants was purified using the Qiagen DNeasy 96 kit (Germantown, MD; 69582) following the manufacturer’s recommended protocol. Briefly, 50 μl of supernatant was collected, lysed with an equal volume of Qiagen ATL buffer containing 10% proteinase K, and then incubated at 56°C for 10 minutes. Lysates were then mixed with 100 μl of […] containing ethanol, transferred into the DNeasy 96 well plate, and placed onto a vacuum manifold (Qiagen; 19504). The vacuum was applied to bind DNA to the DNeasy membrane while contaminants passed through. DNA bound to the membrane was washed first with 500 μl of AW1followed by 500 μl of AW2 buffer. After washing, plates were centrifuged (Sigma Model 4-16S) at 6000 rpm for 2 minutes. DNA was then eluted with 100 μl of pre-warmed AE buffer by a final centrifugation step of 6000 rpm for 2 minutes.
Quantification of vDNA by qPCR (quantitative polymerase chain reaction) amplification of the HBVX region of the genome was performed by combining 5 μl of DNA, 900 nM of forward primer (5’[…] 3’), 900 nM of reverse primer (5’[…]-3’), 0.2 μM TaqMan probe (5’ [6FAM] […] [NFQ-MGB] 3’), and 1X TaqMan Fast Advanced Master Mix (Thermo Fisher Scientific; 4444557) for a total reaction volume of 20 μl in 96-well PCR plates (Thermo Fisher Scientific; 4346906). qPCR was carried out on a real-time PCR system (Thermo Fisher Scientific; QuantiStudio 7 Flex) using the following conditions: 95°C for 20 seconds, followed by 40 cycles of 95°C for 1 second and 60°C for 20 second. A plasmid containing the HBV full genome was used for the standard curve.
Antiviral activity of test compounds was determined from vRNA, vDNA, HBeAg, and HBsAg data by comparing compound-treated PHH to DMSO (vehicle)-treated PHH to generate a percent of DMSO control value (% DMSO control). The % DMSO control was calculated by the following equation: %DMSOControl=100xXc/XD where Xc is the signal from the compound-treated PHH and XD is the signal from the DMSO-treated PHH. The % DMSO control for vRNA, vDNA, HBeAg, HBsAg, GAPDH, or RPLP0 was plotted versus the log of each compound concentration in GraphPad Prism (version 6; Graphpad Software, LaJolla, CA) to generate dose-response curves. […] Dose-response curves were fitted using the nonlinear regression equation “log(agonist) versus response–variable slope (four parameters)” in GraphPad Prism to determine EC50 values.

Data set [11] in a line: Cytotoxicity in HBV-infected PHH (50% decrease in GAPDH or RPLP0). It is filed as cell-based, human. The following applies: human, HBV-infected primary human hepatocytes (PHH); for CC50 at 14 days: PHH donor Hu8181, treated every three to four days for 14 days.
The subject of data set [12] is PHH. The data set is described as above. It is filed as cell-based, human. The following applies: treated every three to four days for 14 days.
The mark [13] stands for this setting: read-out: vDNA EC50, PHH donor BCD, HBV GTD, treated every three to four days for 14 days.
[14] abbreviates: read-out: vDNA EC50, PHH donor Hu276, HBV GTD, treated every three to four days for 14 days.
Setting [15] is: read-out: vDNA EC50, PHH donor Hu349, HBV GTD, treated every three to four days for 14 days.
Where [16] appears, read: read-out: vDNA EC50, PHH donor Hu4167, HBV GTD, treated every three to four days for 14 days.
The mark [17] stands for this setting: read-out: vDNA EC50, PHH donor Hu7272, HBV GTD, treated every three to four days for 14 days.
Where [18] appears, read: read-out: vDNA EC50, PHH donor Hu8130, HBV GTD, treated every three to four days for 14 days.
[19] abbreviates: read-out: vDNA EC50, PHH donor Hu8181, HBV GTD, treated every three to four days for 14 days.

Where two headings read alike, the source gives them in different places.

T2 sequence (Q86X55 2-608): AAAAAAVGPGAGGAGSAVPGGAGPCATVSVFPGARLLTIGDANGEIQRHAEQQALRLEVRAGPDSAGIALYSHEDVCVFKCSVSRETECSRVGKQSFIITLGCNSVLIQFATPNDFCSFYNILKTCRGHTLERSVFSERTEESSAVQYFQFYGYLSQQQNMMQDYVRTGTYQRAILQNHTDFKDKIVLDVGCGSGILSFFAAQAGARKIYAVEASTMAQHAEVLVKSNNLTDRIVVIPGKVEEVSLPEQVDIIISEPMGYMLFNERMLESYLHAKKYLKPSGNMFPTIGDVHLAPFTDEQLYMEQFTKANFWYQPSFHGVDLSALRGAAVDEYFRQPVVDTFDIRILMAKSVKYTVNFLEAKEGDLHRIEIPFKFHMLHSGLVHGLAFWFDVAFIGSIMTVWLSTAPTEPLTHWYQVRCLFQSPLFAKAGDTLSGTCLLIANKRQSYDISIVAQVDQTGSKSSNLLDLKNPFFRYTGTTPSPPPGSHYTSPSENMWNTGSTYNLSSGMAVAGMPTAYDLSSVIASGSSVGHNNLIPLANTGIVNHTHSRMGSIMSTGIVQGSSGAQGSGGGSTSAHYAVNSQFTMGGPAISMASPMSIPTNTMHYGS
T1 sequence (Q8TEK3 1-416): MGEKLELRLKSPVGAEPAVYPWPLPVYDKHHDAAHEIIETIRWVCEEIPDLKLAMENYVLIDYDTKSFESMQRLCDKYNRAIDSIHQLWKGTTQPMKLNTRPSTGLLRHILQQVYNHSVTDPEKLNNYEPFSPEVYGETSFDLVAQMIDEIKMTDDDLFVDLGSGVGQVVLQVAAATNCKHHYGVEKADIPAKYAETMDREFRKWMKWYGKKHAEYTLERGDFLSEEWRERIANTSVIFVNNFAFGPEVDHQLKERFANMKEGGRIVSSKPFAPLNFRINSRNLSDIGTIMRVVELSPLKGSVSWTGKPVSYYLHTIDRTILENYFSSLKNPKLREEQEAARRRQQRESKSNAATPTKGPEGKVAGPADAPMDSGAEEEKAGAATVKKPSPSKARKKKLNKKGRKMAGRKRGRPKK
T3 sequence (Q13547 whole entry): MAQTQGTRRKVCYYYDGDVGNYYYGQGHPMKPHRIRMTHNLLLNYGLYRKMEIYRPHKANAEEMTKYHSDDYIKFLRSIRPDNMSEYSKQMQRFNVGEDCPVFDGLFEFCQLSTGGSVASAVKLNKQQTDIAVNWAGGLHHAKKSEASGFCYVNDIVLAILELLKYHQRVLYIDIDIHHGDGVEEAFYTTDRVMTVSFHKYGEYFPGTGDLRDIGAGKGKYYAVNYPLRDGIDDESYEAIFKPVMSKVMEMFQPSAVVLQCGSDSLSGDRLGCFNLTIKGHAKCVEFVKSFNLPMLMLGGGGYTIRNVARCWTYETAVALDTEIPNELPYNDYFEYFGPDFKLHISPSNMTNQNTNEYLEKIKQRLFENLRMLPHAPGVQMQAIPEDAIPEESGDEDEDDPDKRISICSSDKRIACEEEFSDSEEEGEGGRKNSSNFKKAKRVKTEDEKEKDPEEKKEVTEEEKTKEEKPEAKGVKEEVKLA

Consider `CCN(CCN(C)C)C(=O)CNCc1cc(C(=O)O)ccn1` [GS-080], for which the IC50 in [1], in data set [2] and in data set [3] was more than 100 µM throughout. Also, the CC50 in data set [4] was more than 57 µM; in data set [5] it was more than 44 µM; in data set [6] it was more than 44 µM; in data set [7], more than 50 µM; in [8] it was more than 44 µM. Besides, the measurable cytotoxicity entry in data set [9] is reported as “neither GS-5801 nor GS-080 had measurable cytotoxicity”.

Regarding `CCOC(=O)c1cc(CNCC(=O)N(CC)CCN(C)C)ncc1Br` [GS-420], the EC50 in data set [10] (setting [13]), in data set [10] (setting [14]), in [10] (setting [15]), in [10] (setting [16]), in data set [10] (setting [17]) and in data set [10] (setting [18]) was more than 10 µM in each case. Moreover, the EC50 in data set [10] (setting [19]) is more than 10 µM. The compound also registered a CC50 at 14 days in data set [11] of more than 10 µM. Further, the CC50 in [12] (PHH donor Hu276), in data set [12] (PHH donor Hu349), in data set [12] (PHH donor Hu4167), in data set [12] (PHH donor Hu7272), in [12] (PHH donor Hu8130) and in data set [12] (PHH donor) was more than 10 µM each time.

Take `CCOC(=O)c1ccnc(CNCC(=O)N(CC)CCN(C)C)c1` [GS-5801]: the EC50 in data set [10] (336 h, read-out: EC50 range across genotypes, extracellular HBV DNA, range across genotypes, 14 days of dosing) was 0.079 to 0.25 µM; in [10] (336 h, read-out: EC50 range for extracellular DNA, range over the seven PHH donors tested, HBV GTD, Day 14), 0.0071 to 1.3 µM; in [10] (336 h, read-out: median EC50, extracellular HBV DNA, median across HBV genotypes, 14 days of dosing) it was 0.2 µM; in data set [10] (setting [13]), 0.0071 µM; in data set [10] (setting [14]) it was 0.07 µM; in data set [10] (setting [15]), 0.23 µM. In addition, the EC50 amounted to 0.11 µM in data set [10] (setting [16]); 1.1 µM in data set [10] (setting [17]); 1.3 µM in data set [10] (setting [18]); 0.14 µM in [10] (setting [19]); 0.17 µM in data set [10] (read-out: vDNA EC50, PHH infected with HBV GTA, treated every three to four days for 13 days); 0.079 µM in [10] (read-out: vDNA EC50, PHH infected with HBV GTC, treated every three to four days for 13 days). Further, the EC50 in data set [10] (read-out: vDNA EC50, PHH infected with HBV GTD, treated every three to four days for 13 days (Table 3)) stood at 0.22 µM; in [10] (read-out: vDNA EC50, PHH infected with HBV GTE, treated every three to four days for 13 days), 0.25 µM. The CC50 at 14 days in [11] was more than 10 µM. In addition, the CC50 in data set [11] (the seven PHH donors tested), in [12] (PHH donor Hu276), in data set [12] (PHH donor Hu349), in data set [12] (PHH donor Hu4167), in data set [12] (PHH donor Hu7272) and in data set [12] (PHH donor Hu8130) was more than 10 µM in each case. The CC50 in [12] (PHH donor) is more than 10 µM; in [4], 51 ± 1.2 µM; in data set [5], more than 44 µM; in [6] it was more than 44 µM; in data set [7], more than 50 µM; in data set [8] it was more than 44 µM. For the same compound, the measurable cytotoxicity entry in [9] is “neither GS-5801 nor GS-080 had measurable cytotoxicity”.
